Laboratory results published in PubChem BioAssay AID2060509 (Molecular Pharmacology Branch, DTP, NCI, 2025).

System: 485176-168-R4-J1-PDC spheroids with HUVEC/MSC, viability
Test: Anticancer human tumor 485176-168-R4-J1-PDC patient-derived pancreatic adenocarcinoma cell line growth inhibition [GQUAD]
Settings: for IC50: curve of first compound; for viability, T/C: stronger effect = lower value
Summary of the method: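 Multi-cell-type spheroids of tumor cells with HUVEC and mesenchymal stem cells, treated with drug combinations. Concentrations descend in half-log steps from near clinical Cmax, or from 10 microM where Cmax is unknown; viability read-out.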

[1] = second compound 0.0316 µM, first compound 0.0316 µM
[2] = second compound 0.0316 µM, first compound 0.1 µM
[3] = second compound 0.0316 µM, first compound 0.316 µM
[4] = second compound 0.0316 µM, first compound 1 µM
[5] = second compound 0.0316 µM, first compound 3.16 µM
[6] = second compound 0.0316 µM, first compound 10 µM
[7] = second compound 0.1 µM, first compound 0.0316 µM
[8] = second compound 0.1 µM, first compound 0.1 µM
[9] = second compound 0.1 µM, first compound 0.316 µM
[10] = second compound 0.1 µM, first compound 1 µM
[11] = second compound 0.1 µM, first compound 3.16 µM
[12] = second compound 0.1 µM, first compound 10 µM
[13] = second compound 0.316 µM, first compound 0.0316 µM
[14] = second compound 0.316 µM, first compound 0.1 µM
[15] = second compound 0.316 µM, first compound 0.316 µM
[16] = second compound 0.316 µM, first compound 1 µM
[17] = second compound 0.316 µM, first compound 3.16 µM
[18] = second compound 0.316 µM, first compound 10 µM
[19] = second compound 1 µM, first compound 0.0316 µM
[20] = second compound 1 µM, first compound 0.1 µM
[21] = second compound 1 µM, first compound 0.316 µM
[22] = second compound 1 µM, first compound 1 µM
[23] = second compound 1 µM, first compound 3.16 µM
[24] = second compound 1 µM, first compound 10 µM
[25] = second compound 3.16 µM, first compound 0.0316 µM
[26] = second compound 3.16 µM, first compound 0.1 µM
[27] = second compound 3.16 µM, first compound 0.316 µM
[28] = second compound 3.16 µM, first compound 1 µM
[29] = second compound 3.16 µM, first compound 3.16 µM
[30] = second compound 3.16 µM, first compound 10 µM
[31] = second compound 10 µM, first compound 0.0316 µM
[32] = second compound 10 µM, first compound 0.1 µM
[33] = second compound 10 µM, first compound 0.316 µM
[34] = second compound 10 µM, first compound 1 µM
[35] = second compound 10 µM, first compound 3.16 µM
[36] = second compound 10 µM, first compound 10 µM
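Further: spheroids exposed to compounds for seven days before readout.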
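Wherever viability, T/C is given: percent viability relative to DMSO vehicle control wells as 100%.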

SMILES: COc1ccc([C@@H](O)c2cc(-c3ncnc4cc(N5CCOCC5)ccc34)c(F)cc2Cl)nn1 + Cc1[nH]c2ccc(F)cc2c1-c1nc2c3cccnc3c3ncccc3c2[nH]1
- IC50 (second compound 0.0316 µM): 3020 nM
- IC50 (second compound 0.1 µM): 2690 nM
- IC50 (second compound 0.316 µM): 3660 nM
- IC50 (second compound 1 µM): 2520 nM
- IC50 (second compound 3.16 µM): 1850 nM
- IC50 (second compound 10 µM): 1760 nM
- viability, T/C [1]: 83.4%
- viability, T/C [2]: 98.8%
- viability, T/C [3]: 91.8%
- viability, T/C [4]: 69.8%
- viability, T/C [5]: 51.6%
- viability, T/C [6]: 31.4%
- viability, T/C [7]: 91.9%
- viability, T/C [8]: 90.2%
- viability, T/C [9]: 94.7%
- viability, T/C [10]: 68.6%
- viability, T/C [11]: 48.7%
- viability, T/C [12]: 27.7%
- viability, T/C [13]: 91.2%
- viability, T/C [14]: 88.9%
- viability, T/C [15]: 82%
- viability, T/C [16]: 86.6%
- viability, T/C [17]: 53.2%
- viability, T/C [18]: 28.1%
- viability, T/C [19]: 81%
- viability, T/C [20]: 79%
- viability, T/C [21]: 94.2%
- viability, T/C [22]: 66.5%
- viability, T/C [23]: 46.5%
- viability, T/C [24]: 22.4%
- viability, T/C [25]: 98.5%
- viability, T/C [26]: 87.9%
- viability, T/C [27]: 74.4%
- viability, T/C [28]: 63.2%
- viability, T/C [29]: 39.1%
- viability, T/C [30]: 21.3%
- viability, T/C [31]: 97.4%
- viability, T/C [32]: 78.3%
- viability, T/C [33]: 76%
- viability, T/C [34]: 56%
- viability, T/C [35]: 45.7%
- viability, T/C [36]: 21.1%

SMILES: CC1COCCN1c1cc(-c2ccnn2C)c2ccnc(-c3ccn[nH]3)c2n1 (stereo not drawn) + CN(C)c1ccc(Nc2c3ccc(NC(=O)CCN4CCCC4)cc3nc3cc(NC(=O)CCN4CCCC4)ccc23)cc1
- IC50 (second compound 0.0316 µM): 92.9 nM
- IC50 (second compound 0.1 µM): 117 nM
- IC50 (second compound 0.316 µM): 111 nM
- IC50 (second compound 1 µM): 89.8 nM
- IC50 (second compound 3.16 µM): 70.2 nM
- IC50 (second compound 10 µM): 58 nM
- viability, T/C [1]: 83.6%
- viability, T/C [2]: 47.7%
- viability, T/C [3]: 17%
- viability, T/C [4]: 11.2%
- viability, T/C [5]: 10.4%
- viability, T/C [6]: 11.1%
- viability, T/C [7]: 84.2%
- viability, T/C [8]: 54.9%
- viability, T/C [9]: 18.7%
- viability, T/C [10]: 11.8%
- viability, T/C [11]: 10.7%
- viability, T/C [12]: 8.57%
- viability, T/C [13]: 81.2%
- viability, T/C [14]: 52.9%
- viability, T/C [15]: 20.2%
- viability, T/C [16]: 10.3%
- viability, T/C [17]: 9.46%
- viability, T/C [18]: 10.1%
- viability, T/C [19]: 87.5%
- viability, T/C [20]: 45.9%
- viability, T/C [21]: 23.8%
- viability, T/C [22]: 12.3%
- viability, T/C [23]: 11.4%
- viability, T/C [24]: 9.79%
- viability, T/C [25]: 64.7%
- viability, T/C [26]: 43.5%
- viability, T/C [27]: 17.4%
- viability, T/C [28]: 12.6%
- viability, T/C [29]: 10.6%
- viability, T/C [30]: 11.3%
- viability, T/C [31]: 61.1%
- viability, T/C [32]: 39.8%
- viability, T/C [33]: 23.9%
- viability, T/C [34]: 13.3%
- viability, T/C [35]: 11.4%
- viability, T/C [36]: 9.08%

SMILES: O=c1[nH]cc(F)c(=O)[nH]1 + Cc1[nH]c2ccc(F)cc2c1-c1nc2c3cccnc3c3ncccc3c2[nH]1
- IC50 (second compound 0.0316 µM): 928 nM
- IC50 (second compound 0.1 µM): 967 nM
- IC50 (second compound 0.316 µM): > 10000 nM
- IC50 (second compound 1 µM): 842 nM
- IC50 (second compound 3.16 µM): 2520 nM
- IC50 (second compound 10 µM): 807 nM
- viability, T/C [1]: 89.8%
- viability, T/C [2]: 83.4%
- viability, T/C [3]: 75.1%
- viability, T/C [4]: 46.7%
- viability, T/C [5]: 51.4%
- viability, T/C [6]: 46.6%
- viability, T/C [7]: 86.7%
- viability, T/C [8]: 96.3%
- viability, T/C [9]: 80.9%
- viability, T/C [10]: 45.9%
- viability, T/C [11]: 48.8%
- viability, T/C [12]: 52.5%
- viability, T/C [13]: 92.7%
- viability, T/C [14]: 102%
- viability, T/C [15]: 76.8%
- viability, T/C [16]: 55.5%
- viability, T/C [17]: 46.2%
- viability, T/C [18]: 54.8%
- viability, T/C [19]: 81.9%
- viability, T/C [20]: 104%
- viability, T/C [21]: 68.5%
- viability, T/C [22]: 49.8%
- viability, T/C [23]: 43.2%
- viability, T/C [24]: 47.2%
- viability, T/C [25]: 93.7%
- viability, T/C [26]: 86.5%
- viability, T/C [27]: 69.5%
- viability, T/C [28]: 65.1%
- viability, T/C [29]: 39.7%
- viability, T/C [30]: 47.2%
- viability, T/C [31]: 94.1%
- viability, T/C [32]: 80.5%
- viability, T/C [33]: 60.5%
- viability, T/C [34]: 46.8%
- viability, T/C [35]: 41.6%
- viability, T/C [36]: 48.5%

SMILES: COc1cccc2c1C(=O)c1c(O)c3c(c(O)c1C2=O)CC(O)(C(=O)CO)CC3OC1CC(N)C(O)C(C)O1 (stereo not drawn) + Cc1[nH]c2ccc(F)cc2c1-c1nc2c3cccnc3c3ncccc3c2[nH]1
- IC50 (second compound 0.0316 µM): 391 nM
- IC50 (second compound 0.1 µM): 267 nM
- IC50 (second compound 0.316 µM): 259 nM
- IC50 (second compound 1 µM): 433 nM
- IC50 (second compound 3.16 µM): 249 nM
- IC50 (second compound 10 µM): 314 nM
- viability, T/C [1]: 90.1%
- viability, T/C [2]: 71.5%
- viability, T/C [3]: 61.1%
- viability, T/C [4]: 14.7%
- viability, T/C [5]: 4.77%
- viability, T/C [6]: 0.13%
- viability, T/C [7]: 106%
- viability, T/C [8]: 71.6%
- viability, T/C [9]: 49.5%
- viability, T/C [10]: 23.3%
- viability, T/C [11]: 3.92%
- viability, T/C [12]: 0.39%
- viability, T/C [13]: 81.4%
- viability, T/C [14]: 65.9%
- viability, T/C [15]: 47.4%
- viability, T/C [16]: 23.6%
- viability, T/C [17]: 3.52%
- viability, T/C [18]: 0.18%
- viability, T/C [19]: 86.1%
- viability, T/C [20]: 72.5%
- viability, T/C [21]: 60.9%
- viability, T/C [22]: 26.8%
- viability, T/C [23]: 4.08%
- viability, T/C [24]: 0.14%
- viability, T/C [25]: 82.9%
- viability, T/C [26]: 59.3%
- viability, T/C [27]: 52%
- viability, T/C [28]: 24.9%
- viability, T/C [29]: 19.5%
- viability, T/C [30]: 0.2%
- viability, T/C [31]: 82%
- viability, T/C [32]: 70.6%
- viability, T/C [33]: 50.8%
- viability, T/C [34]: 21.8%
- viability, T/C [35]: 3.95%
- viability, T/C [36]: 0.38%
